Laboratory results published in patent US11365227B2, “Peptide and pharmaceutical compositions of same for use as an antimicrobial and in cancer treatment” (UNIVERSITAT DE VALÈNCIA, priority 2017, dated 2022).
Read-outs that look alike come from different tables or passages of the source. Where a SMILES comes first, the peptide text is derived from it.

Test system: MDA-MB-231 cells
Experiment: Differential proteomic analysis by SWATH
Type: cell-based, human

## CC[C@H](C)[C@H](NC(=O)[C@H](CCCNC(=N)N)NC(=O)[C@H](CCCNC(=N)N)NC(=O)[C@H](CCCCN)NC(=O)[C@H](CC(N)=O)NC(=O)[C@H](CS)NC(=O)[C@H](Cc1ccc(O)cc1)NC(=O)CNC(=O)CNC(=O)[C@H](CCCNC(=N)N)NC(=O)[C@H](CCCCN)NC(=O)[C@H](CCCNC(=N)N)NC(=O)[C@H](CCCCN)NC(=O)[C@H](CC(C)C)NC(=O)[C@H](CC(C)C)NC(=O)[C@H](CS)NC(=O)[C@H](Cc1c[nH]cn1)NC(=O)[C@H](C)NC(=O)[C@H](C)NC(=O)[C@H](CS)NC(=O)[C@H](C)NC(=O)[C@H](C)NC(=O)[C@H](Cc1c[nH]cn1)NC(=O)[C@H](CC(N)=O)NC(=O)[C@@H](NC(=O)[C@@H](N)CCCCN)C(C)C)C(=O)N[C@@H](CS)C(=O)N[C@H](C(=O)N[C@@H](CS)C(=O)N[C@@H](CCCNC(=N)N)C(=O)N[C@@H](CC(N)=O)C(=O)O)C(C)C [PaSK] (H-KVNHAACAAHCLLKRKRGGYCNKRRICVCRN-OH; N-terminus and C-terminus assumed)
  T/C change ratio: 1.45
ASNA_HUMAN, ATPase ASNA1
  T/C change ratio: 0.21
BAZ1B_HUMAN, Tyrosine-protein kinase BAZ1B
  T/C change ratio: 0.31
CALD1_HUMAN, Caldesmon
  T/C change ratio: 0.71
CDCP1_HUMAN, Protein 1 containing domain CUB
  T/C change ratio: 1.22
CK068_HUMAN, UPF0696 protein C11orf68
  T/C change ratio: 0.83
DCUP_HUMAN, Uroporfphyrinogen decarboxylase
  T/C change ratio: 0.21
DDX17_HUMAN, Probable DDX17 ATP-dependent RNA helicase
  T/C change ratio: 0.84
DENR_HUMAN, Density regulated protein
  T/C change ratio: 0.31
DHX36_HUMAN, DHX36 ATP-dependent RNA helicase
  T/C change ratio: 0.27
DPOD1_HUMAN, DNA polymerase delta catalytic subunit
  T/C change ratio: 0.50
EIF3B_HUMAN, Eukaryotic translation initiation factor 3B (EIF3B)
  T/C change ratio: 0.84
FXR1_HUMAN, Fragile X mental retardation protein 1
  T/C change ratio: 0.76
GPX1_HUMAN, Glutathione peroxidase 1 (GPX1)
  T/C change ratio: 5.89
KAD2_HUMAN, Adenylate kinase 2, mitochondrial
  T/C change ratio: 0.51
LARP1_HUMAN, La related protein 1 (LARP1)
  T/C change ratio: 0.28
MANF_HUMAN, Mesencephalic astrocyte-derived neurotrophic factor
  T/C change ratio: 0.63
MMP14_HUMAN, Matrix metalloprotease-14
  T/C change ratio: 1.92
PYRG1_HUMAN, CTP synthase 1
  T/C change ratio: 0.82
RL5_HUMAN, 60 S ribosomal protein L5 (RPSL5)
  T/C change ratio: 0.60
RS13_HUMAN, 40S ribosomal protein S13 (RPS13)
  T/C change ratio: 0.82
SDCB1_HUMAN, Sintenin-1
  T/C change ratio: 1.43
SET_HUMAN, SET protein
  T/C change ratio: 0.90
SH3G1_HUMAN, Endophilin-A2
  T/C change ratio: 0.63
SHLB2_HUMAN, Endophilin-B2
  T/C change ratio: 0.29
SQRD_HUMAN, Sulphide: quinone oxidoreductase (SQRDL), mitochondrial
  T/C change ratio: 1.30
TAGL2_HUMAN, Transgelin-2
  T/C change ratio: 0.75
TM9S4_HUMAN, Member 4 of the transmembrane 9 superfamily
  T/C change ratio: 0.37
TPM4_HUMAN, Tropomyosin alpha-4 chain
  T/C change ratio: 0.74
TRXR1_HUMAN, Thioredoxin reductase 1 (TXNRD1), cytoplasmic
  T/C change ratio: 1.59
U2AF2_HUMAN, U2AF union factor 65 kDa subunit
  T/C change ratio: 0.31
